# *1 amine or outer side, *2 acyl side, *3 side chain or, on linkers, in order; H or OH if unused. Where a SMILES comes first, the peptide text is derived from it. [ ]: non-standard residue; d: D form. The star is where a group is joined. X1 = O=C1[C@@H](CCC(=O)[*:2])CCC[C@H]1N[*:1]; Met(O2) = CS(=O)(=O)CC[C@H](N)C(=O)O; Cbz = O=C(OCc1ccccc1)*
# Assays:
# Prothrombin = Prothrombin (Homo sapiens, UniProt P00734); test: Inhibition of thrombin by dixon plot method
# [1] = biological target: Vitamin K-dependent protein C (Homo sapiens, UniProt P04070); test: Inhibition of activated protein C by dixon plot method
# Plasminogen = Plasminogen (Homo sapiens, UniProt P00747); test: Inhibition of plasmin by dixon plot method
# Plasma kallikrein = Plasma kallikrein (Homo sapiens, UniProt P03952); test: Inhibition of plasma kallikrein by dixon plot method
# Coagulation factor X = Coagulation factor X (Homo sapiens, UniProt P00742); test: Inhibition of factor 10a by dixon plot method
# Chain of Coagulation factor X (P00742 41-179 limits assumed): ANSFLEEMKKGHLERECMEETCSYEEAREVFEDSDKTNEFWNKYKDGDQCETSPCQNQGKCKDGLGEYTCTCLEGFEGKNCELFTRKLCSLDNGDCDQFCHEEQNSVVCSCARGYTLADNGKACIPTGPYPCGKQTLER
# Chain of Coagulation factor X (P00742 235-488 limits assumed): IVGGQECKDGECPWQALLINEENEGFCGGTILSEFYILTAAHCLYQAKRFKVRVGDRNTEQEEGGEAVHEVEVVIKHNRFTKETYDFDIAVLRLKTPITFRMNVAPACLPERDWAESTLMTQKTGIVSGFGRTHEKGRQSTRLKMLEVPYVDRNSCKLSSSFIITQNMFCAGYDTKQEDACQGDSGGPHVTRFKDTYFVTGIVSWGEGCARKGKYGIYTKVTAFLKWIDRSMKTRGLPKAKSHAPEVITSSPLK
# Chain of Plasminogen (P00747 97-580 limits assumed): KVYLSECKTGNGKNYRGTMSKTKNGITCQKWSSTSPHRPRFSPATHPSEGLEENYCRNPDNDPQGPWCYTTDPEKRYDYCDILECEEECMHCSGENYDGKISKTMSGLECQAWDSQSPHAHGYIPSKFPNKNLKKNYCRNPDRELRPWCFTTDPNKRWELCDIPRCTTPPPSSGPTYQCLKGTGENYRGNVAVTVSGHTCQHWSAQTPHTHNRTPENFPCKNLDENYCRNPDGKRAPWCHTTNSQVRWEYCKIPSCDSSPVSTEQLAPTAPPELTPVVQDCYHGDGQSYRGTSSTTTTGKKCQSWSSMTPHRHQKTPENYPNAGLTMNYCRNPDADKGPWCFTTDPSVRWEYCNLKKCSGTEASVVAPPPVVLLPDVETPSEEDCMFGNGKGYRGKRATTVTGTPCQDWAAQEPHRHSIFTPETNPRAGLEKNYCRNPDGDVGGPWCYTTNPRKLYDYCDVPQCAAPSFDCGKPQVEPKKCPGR
# Chain of Plasminogen (P00747 581-810 limits assumed): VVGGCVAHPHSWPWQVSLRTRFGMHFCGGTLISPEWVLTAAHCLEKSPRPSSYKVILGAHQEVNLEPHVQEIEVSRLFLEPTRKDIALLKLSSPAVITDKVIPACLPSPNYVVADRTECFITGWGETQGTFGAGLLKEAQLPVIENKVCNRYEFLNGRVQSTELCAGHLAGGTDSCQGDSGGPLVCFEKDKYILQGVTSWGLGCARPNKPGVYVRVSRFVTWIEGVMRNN
# Chain of Plasma kallikrein (P03952 20-390 limits assumed): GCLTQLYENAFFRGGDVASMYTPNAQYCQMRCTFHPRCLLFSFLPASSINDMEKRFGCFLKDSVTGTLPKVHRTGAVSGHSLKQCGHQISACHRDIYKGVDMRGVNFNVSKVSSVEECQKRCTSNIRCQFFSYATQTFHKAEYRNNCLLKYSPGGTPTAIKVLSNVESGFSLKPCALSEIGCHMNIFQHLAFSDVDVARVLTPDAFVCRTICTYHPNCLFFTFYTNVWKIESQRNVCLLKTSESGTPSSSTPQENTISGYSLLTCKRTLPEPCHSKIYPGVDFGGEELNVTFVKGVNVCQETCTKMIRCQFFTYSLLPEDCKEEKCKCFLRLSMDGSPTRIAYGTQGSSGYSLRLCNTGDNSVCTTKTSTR
# Chain of Plasma kallikrein (P03952 391-638 limits assumed): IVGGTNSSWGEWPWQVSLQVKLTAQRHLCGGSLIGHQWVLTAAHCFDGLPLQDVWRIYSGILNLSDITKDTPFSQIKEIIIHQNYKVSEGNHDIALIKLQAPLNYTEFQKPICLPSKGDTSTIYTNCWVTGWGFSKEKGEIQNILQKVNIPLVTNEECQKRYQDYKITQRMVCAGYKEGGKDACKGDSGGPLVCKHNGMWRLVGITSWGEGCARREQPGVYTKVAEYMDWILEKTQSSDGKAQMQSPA
# Chain of Vitamin K-dependent protein C (P04070 43-197 limits assumed): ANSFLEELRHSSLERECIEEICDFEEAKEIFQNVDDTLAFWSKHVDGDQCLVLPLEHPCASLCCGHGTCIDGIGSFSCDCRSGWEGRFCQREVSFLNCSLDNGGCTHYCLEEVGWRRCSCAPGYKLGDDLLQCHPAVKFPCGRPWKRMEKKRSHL
# Chain of Vitamin K-dependent protein C (P04070 212-461 limits assumed): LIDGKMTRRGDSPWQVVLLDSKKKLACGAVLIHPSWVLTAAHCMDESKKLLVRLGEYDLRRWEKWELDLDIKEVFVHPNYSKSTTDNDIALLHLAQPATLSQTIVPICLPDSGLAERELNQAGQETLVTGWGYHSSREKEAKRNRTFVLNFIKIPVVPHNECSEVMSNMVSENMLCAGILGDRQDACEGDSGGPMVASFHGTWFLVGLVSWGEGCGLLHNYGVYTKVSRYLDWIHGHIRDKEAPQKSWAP
Ki (Prothrombin),Ki [1],Ki (Plasminogen),Ki (Plasma kallikrein),Ki (Coagulation factor X),SMILES
6520 nM,12000 nM,,,,N=C(N)c1ccc(CNC(=O)[C@@H]2Cc3ccc(cc3)CNC(=O)Cc3ccc(cc3)CC(=O)NCc3ccc(cc3)C[C@@H](NS(=O)(=O)Cc3ccccc3)C(=O)N2)cc1
667 nM,0.61 nM,0.81 nM,0.075 nM,42 nM,N=C(N)NCc1cccc(C[C@H](NC(=O)[C@@H](CCCc2ccccc2)NS(=O)(=O)Cc2cccc(C(=O)O)c2)C(=O)NCc2ccc(C(=N)N)cc2)c1
2020 nM,5.1 nM,,,,N=C(N)c1ccc(CNC(=O)[C@@H]2CCC(=O)NCc3cccc(c3)CNC(=O)CC[C@@H](NS(=O)(=O)Cc3ccccc3)C(=O)N2)cc1
3520 nM,3510 nM,,,,N=C(N)c1ccc(CNC(=O)[C@@H]2Cc3ccc(cc3)CNC(=O)CN3CCN(CC3)CC(=O)NCc3ccc(cc3)C[C@@H](NS(=O)(=O)Cc3ccccc3)C(=O)N2)cc1
7.2 nM,48 nM,,25.3 nM,21 nM,N=C(N)c1ccc(CNC(=O)[C@@H]2Cc3cccc(c3)CNC(=O)CN3CCN(CC3)CC(=O)NCc3cccc(c3)C[C@@H](NS(=O)(=O)Cc3ccccc3)C(=O)N2)cc1
26.8 nM,223 nM,,,,N=C(N)c1ccc(CNC(=O)[C@@H]2Cc3cccc(c3)CNC(=O)Cc3cccc(c3)CC(=O)NCc3cccc(c3)C[C@@H](NS(=O)(=O)Cc3ccccc3)C(=O)N2)cc1
510 nM,4590 nM,1.1 nM,19 nM,784 nM,N=C(N)c1ccc(CNC(=O)[C@@H]2Cc3ccc(cc3)OCCCCOc3ccc(cc3)C[C@@H](NS(=O)(=O)Cc3ccccc3)C(=O)N2)cc1
9490 nM,3000 nM,,,,N=C(N)c1ccc(CNC(=O)[C@@H]2Cc3cn(nn3)Cc3cccc(c3)Cn3cc(nn3)C[C@@H](NS(=O)(=O)Cc3ccccc3)C(=O)N2)cc1
6170 nM,8390 nM,,,,N=C(N)c1ccc(CNC(=O)[C@@H]2Cc3cn(nn3)Cc3cccc(n3)Cn3cc(nn3)C[C@@H](NS(=O)(=O)Cc3ccccc3)C(=O)N2)cc1
1180 nM,> 6000 nM,8.9 nM,67 nM,3120 nM,N=C(N)c1ccc(CNC(=O)[C@@H]2Cc3cn(nn3)Cc3cccc([n+]3[O-])Cn3cc(nn3)C[C@@H](NS(=O)(=O)Cc3ccccc3)C(=O)N2)cc1
,,530 nM,,,CCCCCCCCNC(=O)[C@@H](Cc1ccc(OCc2ccncc2)cc1)NC(=O)[C@H]1CC[C@H](CN)CC1
,,3.08 nM,,,CC(=O)N[C@@H](CCCNC(=N)N)C(=O)N[C@@H](CCS(C)(=O)=O)C(=O)N[C@@H](Cc1ccc(O)cc1)C(=O)N[C@H](C=O)CCCNC(=N)N (Ac-R[Met(O2)]YR-aldehyde)
,,2700 nM,,,O=C(CC[C@H]1CCC[C@@H](NC(=O)[C@H](Cc2c[nH]c3ccccc23)NC(=O)[C@H](Cc2c[nH]c3ccccc23)NC(=O)OCc2ccccc2)C1=O)N[C@@H](Cc1c[nH]c2ccccc12)C(=O)N[C@@H](Cc1ccc(O)cc1)C(=O)O (Cbz-WW[X1]WY-OH)
137 nM,90 nM,,,,N=C(N)c1ccc(CNC(=O)[C@@H]2Cc3ccc(cc3)OCC=CCOc3ccc(cc3)C[C@@H](NS(=O)(=O)Cc3ccccc3)C(=O)N2)cc1 (mixture of isomers)

SMILES,Ki (Prothrombin),Ki [1],Ki (Plasminogen),Ki (Plasma kallikrein),Ki (Coagulation factor X)
N=C(N)c1ccc(CNC(=O)[C@@H]2Cc3cccc(c3)CNC(=O)Cc3ccc(cc3)CC(=O)NCc3cccc(c3)C[C@@H](NS(=O)(=O)Cc3ccccc3)C(=O)N2)cc1,45.4 nM,564 nM,,,

# Reference: ChEMBL document CHEMBL2016561 (J Med Chem, 2012)
